Data on ten compounds can be found in PMC10436260, “Thiazolide Prodrug Esters and Derived Peptides: Synthesis and Activity” (ACS Bio & Med Chem Au, 2023).

Data set [1] is classed as physicochemical. To be noted: for stability of solutions: pH 5. An excerpt: We studied the aqueous stability further by NMR, Figures 1 and 2. […] In the case of valacyclovir, which we originally used as a model for 5a and 6, it was known that some hydrolysis occurred in vivo.[17] Clearly, at the 18 day time point [Figure 2g], the rearrangement and hydrolysis products accounted for ∼50% of the total analyte. In Figure 3, the aryl region is integrated and compared with the spectra of 5a, 3, and 8 (see below).
Figure 2 Time-course ^1H NMR spectra of the aromatic region of 5a in d6-DMSO + 10%D2O. Evolution with time over an 18 day period at 298–313 K. The sample was held in an isothermal bath at a specified temperature between measurements. Spectra were recorded at the temperature stated in each case. (a) t = zero, 298 K; (b) t = 1 week, 308 K; (c) t = 8 days, 308 K; (d) t = 9 days, 308 K; (e) t = 11 days, 313 K; (f) t = 14 days, 313 K; (g) t = 18 days, 313 K.
Figure 3 Assignment and integration of the final time-point spectrum.

For data set [2] the following is noted: rat, in vivo, po; cited from earlier work.
Data set [3] can be described thus: in vitro. The format is in vitro ADME. Particulars: human, microsomes. An excerpt: Table 1 Summarized DMPK and Antiviral Data for Thiazolides and Derived Peptides | column: clearance HLM μL/min/mg
The nature of data set [4]: cell viability by MTT assay in mock-infected cells. Format: cell-based, canine. To be noted: dog; mock-infected MDCK cells, MTT, 24 h; read-out: CC50 (50% cytotoxic concentration). The method, then:
(§1) Madin–Darby canine kidney (MDCK) cells (American Type Culture Collection, ATCC) were grown at 37 °C in a 5% CO2 atmosphere in an RPMI-1640 medium (LONZA-CAMBREX, Basel, Switzerland), supplemented with 10% fetal calf serum (FCS), 2 mM glutamine, and antibiotics. Tizoxanide (Romark Laboratories, L.C.) and derived peptides, dissolved in a dimethyl sulfoxide (DMSO) stock solution, were diluted in culture medium, added to infected cells after a one-hour virus adsorption period, and maintained in the medium for the duration of the experiment.
(§2) Cell viability was determined by the 3-(4,5-dimethylthiazol-2-yl)-2,5-diphenyltetrazolium bromide (MTT) to MTT formazan conversion assay (Sigma-Aldrich), as described.[28],[29] The 50% cytotoxic dose (CC50) was calculated using Prism 5.0 software (Graph-Pad Software Inc.).[28]
(§3) Confluent cell monolayers were mock-infected or infected with PR8 virus for 1 h at 37 °C at a multiplicity of infection (MOI) of 5 HAU (hemagglutinating units)/10^5 cells, as described.[30],[31] After the adsorption period, the viral inoculum was removed and cells were treated with different concentrations (0.1, 1, 5, 10, and 50 μg/mL) of each compound or vehicle and maintained at 37 °C in an RPMI-1640 medium containing 2% FCS for 24 h; in parallel, cell viability was determined in mock-infected cells by the MTT assay, as described above. Virus yield was determined 24 h post infection (p.i.) by HA titration, as described.[31] Compounds’ IC50 (50% inhibitory concentration) and IC90 (90% inhibitory concentration) were calculated using Prism 5.0 software.
In general terms: Formazan colour is commonly taken as a measure of viable cells.

Data set [5] can be described thus: clearance in rat hepatocytes (RH). Format: in vitro ADME. The source says:
Table 1 Summarized DMPK and Antiviral Data for Thiazolides and Derived Peptides | column: clearance RH μL/min/10^6 cells

Data set [6] in a line: physchem. To be noted: pH 7.4.
Data set [7] deals with influenza A virus (IAV) strain A/PuertoRico/8/1934(H1N1) (PR8). The data set is described as follows: microbe, parasite or virus in culture. Format: cell-based.
Data set [8] is described as follows: physchem. The format is physicochemical. The source says:
Table 1 Summarized DMPK and Antiviral Data for Thiazolides and Derived Peptides | column: log P

The test system of data set [9] is Madin–Darby canine kidney (MDCK) cells. The data set is described as follows: cell viability by MTT assay in mock-infected cells. To be noted: antiviral assay conditions, MDCK cells. The format is cell-based. The procedure: as §1, §2, §3
The mark [10] stands for this setting: CC50 (MDCK) / IC50 (influenza A).
Setting [11] is: Influenza A virus, MDCK, 24 h; read-out: IC50 (50% inhibitory concentration).
Where [12] appears, read: Influenza A virus, MDCK, 24 h; read-out: IC90 (90% inhibitory concentration).

Each structure is given as a SMILES string. ≈ marks a conversion by molar mass, not a printed value. Entries after “also recorded” stand apart in the source; their conditions may differ. Where two headings read alike, the source gives them in different places.

Turning to `CC(C)(C)[C@H](N)C(=O)Oc1ccccc1C(=O)Nc1ncc(Cl)s1` [compound 6], in data set [1], the stability on storage entry was “stable for months”. Besides, the absolute bioavailability in data set [2] is 20–25%.
For the compound `CC(C)(C)[C@H](N)C(=O)Oc1ccccc1C(=O)Nc1ncc([N+](=O)[O-])s1.Cc1ccc(S(=O)(=O)O)cc1` [5b, (S)-3,3-Dimethyl-1-(2-((5-nitrothiazol-2-yl)carbamoyl)phenoxy)-1-oxobutan-2-aminium 4-methylbenzenesulfonate], the stability of solutions entry in data set [1] is reported as “unstable”.
Consider `CC(C)(C)[C@H](NC(=O)c1ccccc1O)C(=O)Nc1ncc([N+](=O)[O-])s1` [compound 8, (S)-N-(3,3-Dimethyl-1-((5-nitrothiazol-2-yl)amino)-1-oxobutan-2-yl)-2-hydroxybenzamide], for which the microsomal CLint (in general, the capacity of the preparation to metabolise the compound, expressed as a volume cleared per time) in data set [3] is 36.5 µL/min/mg. In data set [4], the CC50 at 24 h was above 132 µM. The hepatocyte CLint – broadly, the rate of metabolic loss divided by the concentration – in [5] came out at 31.5 µL/min/1e6 cells. In addition, the solubility (as a rule, the dissolved amount per volume that the medium holds) in data set [6] is 18 µM (≈ 6.81 µg/mL). For the same compound, the “SI, selectivity index, CC50/IC50” value in [7] (setting [10]) is recorded as above 83. For the same compound, the IC50 in [7] (setting [11]) came out at 1.6 µM. Also, the IC90 in data set [7] (setting [12]) worked out at 79 µM. Besides, the “antiviral activity in words” value in data set [7] (influenza A virus assay) was “retains good activity”. In addition, the logP – broadly, the decadic logarithm of the partition coefficient of the neutral form, usually between octanol and water – in data set [8] turned out to be 3.3.
As for `CC(C)(C)[C@H](NC(=O)c1ccccc1O)C(=O)Nc1ncc(Cl)s1` [compound 20, (S)-N-(3,3-Dimethyl-1-((5-chlorothiazol-2-yl)amino)-1-oxobutan-2-yl)-2-hydroxybenzamide], the microsomal CLint in [3] worked out at 42.4 µL/min/mg. Also, in data set [4], the CC50 at 24 h is 40.8 µM. In addition, the “toxicity under the assay conditions in words” value in [9] is “appeared toxic”. Besides, in data set [5], the hepatocyte CLint turned out to be 75.4 µL/min/1e6 cells. The same compound gave a solubility in [6] of 388 µM (≈ 143 µg/mL). Also, the IC50 in [7] (setting [11]) was above 40.8 µM. Besides, the IC90 in data set [7] (setting [12]) is above 40.8 µM. Also, in data set [7] (influenza A virus assay), the “antiviral activity in words” value is “essentially inactive; also recorded: virtually inactive”. In data set [8], this compound yielded a logP above 3.5.
In the case of `CC(C)(C)[C@H](N)C(=O)Oc1ccccc1C(=O)Nc1ncc([N+](=O)[O-])s1` [5a], the stability on storage entry in [1] is “stable for months”. Also, the “rearrangement and hydrolysis products as share of total analyte / loss of 5a” value in [1] (d6-DMSO + 10% D2O, 298–313 K, 18 day time point, 1H NMR integration) is on record as around 50%. Also, the “antiviral activity in words” value in data set [7] (influenza A virus assay) was “activity is equivalent to 3”. In addition, the absolute bioavailability in [2] is recorded as 20–25%.
Take `CC(C)[C@H](NC(=O)c1ccccc1O)C(=O)Nc1ncc([N+](=O)[O-])s1` [compound 21, (S)-2-Hydroxy-N-(3-methyl-1-((5-nitrothiazol-2-yl)amino)-1-oxobutan-2-yl)benzamide]: in data set [3], the microsomal CLint was found to be 55.9 µL/min/mg. The CC50 at 24 h in data set [4] was above 137 µM. The compound further displayed a hepatocyte CLint in data set [5] of 67.7 µL/min/1e6 cells. The same compound displayed a solubility in data set [6] above 1000 µM. For the same compound, the “SI, selectivity index, CC50/IC50” value in data set [7] (setting [10]) is above 10. The IC50 in [7] (setting [11]) is 13.7 µM. Further, the IC90 in [7] (setting [12]) is above 137 µM. The “antiviral activity in words” value in data set [7] (influenza A virus assay) was “considerably less active”. In data set [8], this compound came in with a logP of 2.9.
For the compound `CC(C)(C)[C@H](N)C(=O)Oc1ccccc1C(=O)Nc1ncc([N+](=O)[O-])s1.CS(=O)(=O)O` [5c, (S)-3,3-Dimethyl-1-(2-((5-nitrothiazol-2-yl)carbamoyl)phenoxy)-1-oxobutan-2-aminium Methanesulfonate], in data set [1], the stability of solutions result is recorded as “unstable”.
Consider `O=C(Nc1ncc(Cl)s1)c1ccccc1O` [compound 4, reference compound], for which the microsomal CLint in [3] was found to be 37.5 µL/min/mg. In addition, the CC50 at 24 h in data set [4] was above 196 µM. The intrinsic metabolic clearance (hepatocyte CLint) in [5] is above 300 µL/min/1e6 cells. The same compound showed a solubility in [6] of 48 µM (≈ 12.2 µg/mL). For the same compound, in data set [7], the “SI, selectivity index, CC50/IC50” value was above 50. In [7] (Influenza A virus, MDCK, 24 h, read-out: IC50 (50% inhibitory concentration)), the IC50 was found to be 3.9 µM. Further, the IC90 in data set [7] (Influenza A virus, MDCK, 24 h, read-out: IC90 (90% inhibitory concentration)) stood at 19.6 µM. In addition, the logP in [8] came to 2.9.
Regarding `CC(C)[C@H](NC(=O)c1ccccc1O)C(=O)Nc1ncc(Cl)s1` [compound 22, (S)-2-Hydroxy-N-(3-methyl-1-((5-chlorothiazol-2-yl)amino)-1-oxobutan-2-yl)benzamide], the microsomal CLint in data set [3] was determined as 42.7 µL/min/mg. Also, the CC50 at 24 h in data set [4] was 42.4 µM. The “toxicity under the assay conditions in words” value in [9] is on record as “appeared toxic”. In addition, in data set [5], the intrinsic metabolic clearance (hepatocyte CLint) was 234 µL/min/1e6 cells. The same compound had a solubility in data set [6] of 82 µM (≈ 29 µg/mL). Moreover, the IC50 in data set [7] (setting [11]) was above 42.4 µM. Besides, the IC90 in data set [7] (setting [12]) was above 42.4 µM. The “antiviral activity in words” value in [7] (influenza A virus assay) was “essentially inactive; also recorded: virtually inactive”.
For `O=C(Nc1ncc([N+](=O)[O-])s1)c1ccccc1O` [compound 3, Tizoxanide, reference compound], in data set [3], the microsomal CLint was 50.2 µL/min/mg. Moreover, the CC50 at 24 h in [4] was above 189 µM. This compound gave a hepatocyte CLint in data set [5] of 244 µL/min/1e6 cells. Further, the solubility in data set [6] was 33 µM (≈ 8.75 µg/mL). Moreover, the “SI, selectivity index, CC50/IC50” value in [7] (setting [10]) is above 82. Besides, the IC50 in data set [7] (setting [11]) came to 2.3 µM. Besides, in data set [7] (setting [12]), the IC90 stood at 26.4 µM. In data set [8], this compound yielded a logP of 1.8.
